Measured values taken from patent US8247170B2, “Detection of penicillin tolerance in Group B Streptococcus: single nucleotide polymorphisms in penicillin binding protein 4” (priority 2008, dated 2012).

System: GBS clinical isolates and laboratory strains
Assay: Macrobroth penicillin tolerance assay
Format: cell-based, Group B Streptococcus
Conditions: then 24 h drug-free; for 100xMIC, regrowth O.D.600: Penicillin G 100×MIC90 48 h; for 300xMIC, regrowth O.D.600: Penicillin G 300×MIC90 48 h; for 10xMIC, regrowth O.D.600: Penicillin G 10×MIC90 48 h; for 30xMIC, regrowth O.D.600: Penicillin G 30×MIC90 48 h
Procedure: Using this modified penicillin tolerance assay, tolerant strains from the GBS clinical isolates can be more efficiently identified. In this macrobroth culture format, 25 ml THB broth GBS cultures (containing clinical isolates) were grown to an early exponential growth phase (˜0.2 OD600). Cell cultures (6 ml) were collected and divided into 4 culture tubes. […] Cell cultures were shaken at 150 rpm in order to maintain cells in suspension for proper growth. Subcultures (1/20 dilution) of cells were put into fresh THB containing […] Penase (i.e., 100 μl of Penase 10,000 U stock into 4 ml THB culture). Subcultures were allowed to grow for 24 hours at 37° C. Cell growth was monitored by OD (see Example 2).
(I) Bacterial Strains and Culture Conditions. GBS strains A909 (serotype IA), 515 (serotype IA), NEM316 (serotype III), COHI (serotype III), 2603V/R (serotype V) and O90R (non-typable) were used in this study. E. coli Top10 cells were used for the recombination experiments. GBS was cultured in Todd Hewitt broth (THB) or Tryptic Soy 5% sheep blood (TS) media and E. coli in Luria-broth (LB) medium or agar. Antibiotics were used at the following concentrations: for GBS—penicillin G (MIC90 0.06 μg ml^−1), ampicillin (MIC90 0.12 μg ml^−1), vancomycin (MIC90 2 μg ml^−1), cefazolin (MIC90 1 μg ml^−1) and chloramphenicol (5 μg ml^−1); for E. coli—ampicillin (50 μg ml^−1) and chloramphenicol (5 μg ml^−1). Both GBS and E. coli cultures were grown at 37° C. (II) Tolerance Using the MBC:MIC Ratio Method. Three GBS laboratory strains (i.e., A909, NEM316, and O90R) were cultured overnight for 18 h at 37° C. in THB. Subcultures in THB were subsequently grown to exponential phase (OD600˜0.3; i.e. 5×10^5 cfu/ml) at 37° C. Cell cultures were then exposed to different concentrations of antibiotics (Penicillin G, Ampicillin, Cefozolin or Vancomycin). […] Cell cultures were dispersed every 18 h before OD600 was measured to determine the lowest concentration of antibiotic with 90% growth inhibition (MIC90). Antibiotic treated cells (8 μl) from each well were re-suspended into PBS (100 μl) and plated (54 μl) on TS agar plates and allowed to grow for an additional 24 h at 37° C. Cell count was performed to determine the lowest concentration of antibiotic with 90% killing of original inoculums (MBC90). (III) Penicillin Killing and Regrowth Tolerance Assay by Microbroth Dilution. Three GBS laboratory strains (i.e., A909, NEM316, and O90R) were cultured overnight for 18 h at 37° C. in THB. Subcultures in THB were subsequently grown to exponential phase (OD600˜0.3) at 37° C. Cell cultures were then exposed to different concentrations of Penicillin G (Sigma, St. Louis, Mo.). […] Cell cultures were dispersed. A 1:20 dilution of cells was re-plated into new wells containing fresh THB with 500 U Penase (to degrade residual penicillin). Cell cultures were allowed to re-grow for an additional 24 h at 37° C. before the OD600 was measured. (IV) Measuring Cell Viability by Determining ATP Concentration. GBS strains were cultured for 18 h at 37° C. in THB. These cells were inoculated into fresh THB and subsequently allowed to grow to exponential phase (OD600 0.25-0.3) at 37° C. One ml of each culture was centrifuged at 5,000×g for 4 min. The cell pellet was re-suspended in ATP-free water. Cellular ATP was extracted using trichloroacetic acid (TCA) (5%) for 2 min and subsequently neutralized with Tris-EDTA-0.1M NaOAc, pH 7.75 to 10×TCA volume. The initial (in.) cellular ATP concentration ([ATP]) was measured using the ENLITEN (Promega) luciferase based reaction kit. THB cultures were then treated with 100×MIC90 Penicillin G for 22 h. The experimental (exp.) cellular ATP was extracted and the concentration was measured as stated above. Based on the calculations ([ATP] exp.)/([ATP] in./O.D. in.), differences in viability were equated with the change in [ATP]. (V) Measuring Penicillin Induced Lysis. Three GBS laboratory strains (A909, NEM316, and O90R) were cultured for 18 h at 37° C. in THB. […]

Structure (SMILES): CC1(C)S[C@@H]2[C@H](NC(=O)Cc3ccccc3)C(=O)N2[C@H]1C(=O)O [Penicillin G]
- 100xMIC, regrowth O.D.600 (GBS strain 47 (III)): −− (“−−” indicates an O.D.600 of 0.001 to 0.099)
- 300xMIC, regrowth O.D.600 (GBS strain 47 (III)): −− (“−−” indicates an O.D.600 of 0.001 to 0.099)
- 10xMIC, regrowth O.D.600 (GBS strain 60 (NT)): + (“+” indicates an O.D.600 of 0.100 to 0.250)
- 30xMIC, regrowth O.D.600 (GBS strain 60 (NT)): ++ (“++” indicates an O.D.600 of 0.251 to 0.750)
- 100xMIC, regrowth O.D.600 (GBS strain 60 (NT)): + (“+” indicates an O.D.600 of 0.100 to 0.250)
- 300xMIC, regrowth O.D.600 (GBS strain 60 (NT)): + (“+” indicates an O.D.600 of 0.100 to 0.250)
- 10xMIC, regrowth O.D.600 (GBS strain 68 (III)): + (“+” indicates an O.D.600 of 0.100 to 0.250)
- 30xMIC, regrowth O.D.600 (GBS strain 68 (III)): −− (“−−” indicates an O.D.600 of 0.001 to 0.099)
- 100xMIC, regrowth O.D.600 (GBS strain 68 (III)): + (“+” indicates an O.D.600 of 0.100 to 0.250)
- 300xMIC, regrowth O.D.600 (GBS strain 68 (III)): + (“+” indicates an O.D.600 of 0.100 to 0.250)
- 10xMIC, regrowth O.D.600 (GBS strain 71 (III)): −− (“−−” indicates an O.D.600 of 0.001 to 0.099)
- 30xMIC, regrowth O.D.600 (GBS strain 71 (III)): −− (“−−” indicates an O.D.600 of 0.001 to 0.099)
- 100xMIC, regrowth O.D.600 (GBS strain 71 (III)): −− (“−−” indicates an O.D.600 of 0.001 to 0.099)
- 300xMIC, regrowth O.D.600 (GBS strain 71 (III)): −− (“−−” indicates an O.D.600 of 0.001 to 0.099)
- 10xMIC, regrowth O.D.600 (GBS strain 90 (Ib)): −− (“−−” indicates an O.D.600 of 0.001 to 0.099)
- 30xMIC, regrowth O.D.600 (GBS strain 90 (Ib)): −− (“−−” indicates an O.D.600 of 0.001 to 0.099)
- 100xMIC, regrowth O.D.600 (GBS strain 90 (Ib)): −− (“−−” indicates an O.D.600 of 0.001 to 0.099)
- 300xMIC, regrowth O.D.600 (GBS strain 90 (Ib)): −− (“−−” indicates an O.D.600 of 0.001 to 0.099)
- 10xMIC, regrowth O.D.600 (GBS strain 91 (III)): −− (“−−” indicates an O.D.600 of 0.001 to 0.099)
- 30xMIC, regrowth O.D.600 (GBS strain 91 (III)): −− (“−−” indicates an O.D.600 of 0.001 to 0.099)
- 100xMIC, regrowth O.D.600 (GBS strain 91 (III)): −− (“−−” indicates an O.D.600 of 0.001 to 0.099)
- 300xMIC, regrowth O.D.600 (GBS strain 91 (III)): −− (“−−” indicates an O.D.600 of 0.001 to 0.099)
- 10xMIC, regrowth O.D.600 (GBS strain 93 (Ib)): −− (“−−” indicates an O.D.600 of 0.001 to 0.099)
- 30xMIC, regrowth O.D.600 (GBS strain 93 (Ib)): −− (“−−” indicates an O.D.600 of 0.001 to 0.099)
- 100xMIC, regrowth O.D.600 (GBS strain 93 (Ib)): −− (“−−” indicates an O.D.600 of 0.001 to 0.099)
- 300xMIC, regrowth O.D.600 (GBS strain 93 (Ib)): −− (“−−” indicates an O.D.600 of 0.001 to 0.099)
- 10xMIC, regrowth O.D.600 (GBS strain 97 (V)): −− (“−−” indicates an O.D.600 of 0.001 to 0.099)
- 30xMIC, regrowth O.D.600 (GBS strain 97 (V)): ++ (“++” indicates an O.D.600 of 0.251 to 0.750)
- 100xMIC, regrowth O.D.600 (GBS strain 97 (V)): ++ (“++” indicates an O.D.600 of 0.251 to 0.750)
- 300xMIC, regrowth O.D.600 (GBS strain 97 (V)): ++ (“++” indicates an O.D.600 of 0.251 to 0.750)
- 10xMIC, regrowth O.D.600 (GBS strain 101 (NT)): −− (“−−” indicates an O.D.600 of 0.001 to 0.099)
- 30xMIC, regrowth O.D.600 (GBS strain 101 (NT)): −− (“−−” indicates an O.D.600 of 0.001 to 0.099)
- 100xMIC, regrowth O.D.600 (GBS strain 101 (NT)): −− (“−−” indicates an O.D.600 of 0.001 to 0.099)
- 300xMIC, regrowth O.D.600 (GBS strain 101 (NT)): −− (“−−” indicates an O.D.600 of 0.001 to 0.099)
- 10xMIC, regrowth O.D.600 (GBS strain 117 (Ia)): + (“+” indicates an O.D.600 of 0.100 to 0.250)
- 30xMIC, regrowth O.D.600 (GBS strain 117 (Ia)): + (“+” indicates an O.D.600 of 0.100 to 0.250)
- 100xMIC, regrowth O.D.600 (GBS strain 117 (Ia)): + (“+” indicates an O.D.600 of 0.100 to 0.250)
- 300xMIC, regrowth O.D.600 (GBS strain 117 (Ia)): + (“+” indicates an O.D.600 of 0.100 to 0.250)
- 10xMIC, regrowth O.D.600 (GBS strain 122 (III)): −− (“−−” indicates an O.D.600 of 0.001 to 0.099)
- 30xMIC, regrowth O.D.600 (GBS strain 122 (III)): −− (“−−” indicates an O.D.600 of 0.001 to 0.099)
- 100xMIC, regrowth O.D.600 (GBS strain 122 (III)): −− (“−−” indicates an O.D.600 of 0.001 to 0.099)
- 300xMIC, regrowth O.D.600 (GBS strain 122 (III)): −− (“−−” indicates an O.D.600 of 0.001 to 0.099)
- 10xMIC, regrowth O.D.600 (GBS strain 127 (Ia)): −− (“−−” indicates an O.D.600 of 0.001 to 0.099)
- 30xMIC, regrowth O.D.600 (GBS strain 127 (Ia)): ++ (“++” indicates an O.D.600 of 0.251 to 0.750)
- 100xMIC, regrowth O.D.600 (GBS strain 127 (Ia)): ++ (“++” indicates an O.D.600 of 0.251 to 0.750)
- 300xMIC, regrowth O.D.600 (GBS strain 127 (Ia)): ++ (“++” indicates an O.D.600 of 0.251 to 0.750)
- 10xMIC, regrowth O.D.600 (GBS strain 129 (V)): −− (“−−” indicates an O.D.600 of 0.001 to 0.099)
- 30xMIC, regrowth O.D.600 (GBS strain 129 (V)): −− (“−−” indicates an O.D.600 of 0.001 to 0.099)
- 100xMIC, regrowth O.D.600 (GBS strain 129 (V)): −− (“−−” indicates an O.D.600 of 0.001 to 0.099)
- 300xMIC, regrowth O.D.600 (GBS strain 129 (V)): −− (“−−” indicates an O.D.600 of 0.001 to 0.099)
- 10xMIC, regrowth O.D.600 (GBS strain 131 (V)): −− (“−−” indicates an O.D.600 of 0.001 to 0.099)
- 30xMIC, regrowth O.D.600 (GBS strain 131 (V)): −− (“−−” indicates an O.D.600 of 0.001 to 0.099)
- 100xMIC, regrowth O.D.600 (GBS strain 131 (V)): −− (“−−” indicates an O.D.600 of 0.001 to 0.099)
- 300xMIC, regrowth O.D.600 (GBS strain 131 (V)): −− (“−−” indicates an O.D.600 of 0.001 to 0.099)
- 10xMIC, regrowth O.D.600 (GBS strain 156 (Ia)): −− (“−−” indicates an O.D.600 of 0.001 to 0.099)
- 30xMIC, regrowth O.D.600 (GBS strain 156 (Ia)): −− (“−−” indicates an O.D.600 of 0.001 to 0.099)
- 100xMIC, regrowth O.D.600 (GBS strain 156 (Ia)): −− (“−−” indicates an O.D.600 of 0.001 to 0.099)
- 300xMIC, regrowth O.D.600 (GBS strain 156 (Ia)): ++ (“++” indicates an O.D.600 of 0.251 to 0.750)
- 10xMIC, regrowth O.D.600 (GBS strain 172 (NT)): −− (“−−” indicates an O.D.600 of 0.001 to 0.099)
